Measured values: US7375109B2, “Glycine-substituted thieno[2,3-d]pyrimidines with combined LH and FSH agonistic activity” (N.V. Organon, priority 2001, dated 2008)
pEC50: −log10 of the molar value.

Experiments:
human LH receptor = biological target: T1, human LH receptor (Homo sapiens, UniProt P22888); assay: CHO-LH in vitro bioactivity (CRE-luciferase reporter); type: cell-based; conditions: CHO cells stably transfected with human LH receptor
T1 construct: expressed in transfected cells; host or cells: Chinese Hamster Ovary (CHO) cells, stably transfected; cotransfected with CRE-luciferase reporter
Description: (§1) It has been shown that compounds of the above mentioned formula I show agonistic LH and FSH activity. […] Typically the FSH activity ranges from an activity of about 0.1% of the LH agonist stimulation to about 10% of the LH agonist stimulation.
(§2) LH agonistic activity of compounds were tested in Chinese Hamster Ovary (CHO) cells stably transfected with the human LH receptor and cotransfected with a cAMP responsive element (CRE)/promotor directing the expression of a firefly luciferase reporter gene. Binding of ligand to the Gs-coupled LH receptor will result in an increase of cAMP, which in turn will induce an increased transactivation of the luciferase reporter construct. The luciferase signal was quantified using a luminescence counter. For test compounds, EC50 values (concentration of test compound causing half-maximal (50%) stimulation) were calculated. For that purpose the software program GraphPad PRISM, version 3.0 (GraphPad software Inc., San Diego) was used.

human FSH receptor = biological target: T2, human FSH receptor (Homo sapiens, UniProt P23945); assay: CHO-FSH in vitro bioactivity (CRE-luciferase reporter); type: cell-based; conditions: CHO cells transfected with human FSH receptor and luciferase reporter gene
T2 construct: expressed in transfected cells; host or cells: CHO cells transfected with human FSH receptor and CRE-luciferase reporter
T2 sequence (P23945 18-695): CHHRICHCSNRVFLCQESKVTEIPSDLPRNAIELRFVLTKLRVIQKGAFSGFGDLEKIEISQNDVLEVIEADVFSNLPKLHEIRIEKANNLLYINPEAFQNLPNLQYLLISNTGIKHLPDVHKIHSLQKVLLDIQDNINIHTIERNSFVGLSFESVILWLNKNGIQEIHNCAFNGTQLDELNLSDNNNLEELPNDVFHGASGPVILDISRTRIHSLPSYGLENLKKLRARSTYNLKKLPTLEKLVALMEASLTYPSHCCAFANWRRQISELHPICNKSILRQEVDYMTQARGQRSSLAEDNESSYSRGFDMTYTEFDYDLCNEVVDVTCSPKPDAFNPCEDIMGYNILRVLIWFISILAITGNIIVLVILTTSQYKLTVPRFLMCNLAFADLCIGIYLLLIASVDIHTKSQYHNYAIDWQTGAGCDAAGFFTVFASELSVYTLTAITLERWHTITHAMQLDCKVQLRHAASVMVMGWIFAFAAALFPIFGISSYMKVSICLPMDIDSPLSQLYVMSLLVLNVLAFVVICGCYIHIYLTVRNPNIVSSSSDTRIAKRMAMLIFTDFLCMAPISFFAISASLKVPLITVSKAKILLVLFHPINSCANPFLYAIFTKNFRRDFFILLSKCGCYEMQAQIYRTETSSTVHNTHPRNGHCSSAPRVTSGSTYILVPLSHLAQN
Description: as §1, §2
In a similar way FSH agonistic activity of compounds were tested in CHO cells transfected with the luciferase reporter gene and the human FSH receptor.

T1 sequence (P22888 27-699): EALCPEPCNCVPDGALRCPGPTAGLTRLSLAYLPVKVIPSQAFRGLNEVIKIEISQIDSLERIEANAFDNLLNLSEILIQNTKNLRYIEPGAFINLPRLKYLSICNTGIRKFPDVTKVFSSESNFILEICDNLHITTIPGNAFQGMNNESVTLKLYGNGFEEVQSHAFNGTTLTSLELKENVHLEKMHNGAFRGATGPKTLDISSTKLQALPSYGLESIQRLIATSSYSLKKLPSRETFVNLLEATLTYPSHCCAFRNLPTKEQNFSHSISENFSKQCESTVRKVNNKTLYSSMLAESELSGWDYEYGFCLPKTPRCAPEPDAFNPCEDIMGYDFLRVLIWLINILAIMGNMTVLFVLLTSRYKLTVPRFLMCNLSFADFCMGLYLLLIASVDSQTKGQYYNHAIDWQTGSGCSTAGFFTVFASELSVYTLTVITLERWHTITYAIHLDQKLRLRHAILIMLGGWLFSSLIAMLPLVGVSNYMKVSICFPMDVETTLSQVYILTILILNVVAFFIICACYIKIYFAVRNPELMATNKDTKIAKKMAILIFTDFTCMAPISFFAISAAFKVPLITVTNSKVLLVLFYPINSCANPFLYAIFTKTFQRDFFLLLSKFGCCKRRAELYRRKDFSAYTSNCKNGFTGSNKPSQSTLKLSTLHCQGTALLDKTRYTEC

Compound	pEC50 (human LH receptor)	pEC50 (human FSH receptor)
COC(=O)CNCC(=O)Nc1cccc(-c2nc(-c3cccs3)nc3sc(C(=O)NC(C)(C)C)c(N)c23)c1 [Example 15, tert-Butyl 5-amino-2-(2-thienyl)-4-(3-((N-(methoxycarbonylmethyl)-glycinyl)-amino)-phenyl)-thieno[2,3-d]pyrimidine-6-carboxamide]	7.74	5.49
CSc1nc(-c2cccc(NC(=O)CNCC(O)CO)c2)c2c(N)c(C(=O)NC(C)(C)C)sc2n1 (stereo not drawn) [Example 7]	7.91	5.95
COC(=O)CNCC(=O)Nc1cccc(-c2nc(-c3ccco3)nc3sc(C(=O)NC(C)(C)C)c(N)c23)c1 [Example 13]	7.92	5.59
CCNc1nc(-c2cccc(NC(=O)CNCC(=O)OC)c2)c2c(N)c(C(=O)NC(C)(C)C)sc2n1 [Example 19, tert-Butyl 5-amino-2-ethylamino-4-(3-((N-(methoxycarbonylmethyl)-glycinyl)-amino)-phenyl)-thieno[2,3-d]pyrimidine-6-carboxamide]	7.64	5.64
CCN(CCOC)CC(=O)Nc1cccc(-c2nc(OC)nc3sc(C(=O)NC(C)(C)C)c(N)c23)c1 [Example 22, tert-Butyl 5-amino-2-methoxy-4-(3-((N-ethyl-N-(2-methoxyethyl)-glycinyl)-amino)-phenyl)-thieno[2,3-d]pyrimidine-6-carboxamide]	7.94	6.02
CCN(CCOC)CC(=O)Nc1cccc(-c2nc(OC(C)C)nc3sc(C(=O)NC(C)(C)C)c(N)c23)c1 [Example 24, tert-Butyl 5-amino-2-isopropoxy-4-(3-((N-ethyl-N-(2-methoxyethyl)-glycinyl)-amino)-phenyl)-thieno[2,3-d]pyrimidine-6-carboxamide]	7.11	5.60
CN(CCO)CC(=O)Nc1cccc(-c2nc(N(C)C)nc3sc(C(=O)NC(C)(C)C)c(N)c23)c1 [Example 18, tert-Butyl 5-amino-2-(N,N-dimethylamino)-4-(3-((N-methyl-N-(2-hydroxyethyl)-glycinyl)-amino)-phenyl)-thieno[2,3-d]pyrimidine-6-carboxamide]	7.84	5.79

These reach a higher pEC50 (human LH receptor). Values come first.

pEC50 (human LH receptor)	pEC50 (human FSH receptor)	Compound
8.00	5.61	COC(=O)CNCC(=O)Nc1cccc(-c2nc(-c3ccccc3)nc3sc(C(=O)NC(C)(C)C)c(N)c23)c1 [Example 10]
8.00	5.93	COCCN(CCOC)CC(=O)Nc1cccc(-c2nc(SC)nc3sc(C(=O)NC(C)(C)C)c(N)c23)c1 [Example 6, tert-Butyl 5-amino-2-methylthio-4-(3-((N,N-bis-(2-methoxyethyl)-glycinyl)-amino)-phenyl)-thieno[2,3-d]pyrimidine-6-carboxamide]
8.22	5.84	COC(=O)CNCC(=O)Nc1cccc(-c2nc(SC)nc3sc(C(=O)NC(C)(C)C)c(N)c23)c1 [Example 3, tert-Butyl 5-amino-2-methylthio-4-(3-((N-(methoxycarbonylmethyl)-glycinyl)-amino)-phenyl)-thieno[2,3-d]pyrimidine-6-carboxamide]
8.28	5.84	CN(CCO)CC(=O)Nc1cccc(-c2nc(-c3cccs3)nc3sc(C(=O)NC(C)(C)C)c(N)c23)c1 [Example 14, tert-Butyl 5-amino-2-(2-thienyl)-4-(3-((N-methyl-N-(2-hydroxyethyl)-glycinyl)-amino)-phenyl)-thieno[2,3-d]pyrimidine-6-carboxamide]
8.40	6.21	CN(CCO)CC(=O)Nc1cccc(-c2nc(-c3ccco3)nc3sc(C(=O)NC(C)(C)C)c(N)c23)c1 [Example 11, tert-Butyl 5-amino-2-(2-furyl)-4-(3-((N-methyl-N-(2-hydroxyethyl)-glycinyl)-amino)-phenyl)-thieno[2,3-d]pyrimidine-6-carboxamide]
